Key:
[1] = Stability / pot life of the mixed composition held at room temperature; details: in fluxing component of the two-component composition
Procedure: The two components were mixed at a proportion of 3.6:1 (by weight). The mixed composition was held at room temperature and its viscosity was measured hourly by Brookfield digital viscometer. Following each viscosity measurement, a line was printed on a glass substrate, the line being 50 mm long, 2 mm wide, and 40 μm thick. The printed ink was then sintered in a forced-air oven at 150° C. and the resistance of the obtained printed line was measured.

[2] = Viscosity of the mixed composition (Brookfield digital viscometer); format: physicochemical; details: for Viscosity trend versus composition without stabilizing agent: time following mixing; for Viscosity of the mixed composition: acid replacing citric acid in activated flux of Example 1, relative scale

| SMILES | Viscosity of the mixed composition [2] | also measured |
| --- | --- | --- |
| CCCCCCCCS [octanethiol] | – | Effect of the stabilizing agent on pot life [1]: extend the pot life; Viscosity trend versus composition without stabilizing agent [2]: smaller viscosity increase |
| O=C(O)/C=C\C(=O)O [Maleic, maleic acid] | 5 | – |
| CC(=O)O [Acetic, acetic acid] | 5 | – |
| O=C(O)/C=C/C(=O)O [Fumaric, fumaric acid] | 1 | – |
| CCCCCCCCCCCCS [dodecanethiol] | – | Viscosity trend versus composition without stabilizing agent [2]: smaller viscosity increase |
| O=C(O)C(O)C(O)C(=O)O (stereo not shown) [Tartaric, tartaric acid] | 5 | – |
| O=C(O)C(=O)O [Oxalic, Oxalic acid] | 1 | Viscosity behaviour at room temperature following mixing [2]: increased within a few minutes such that it was not suitable for printing |
| NC(N)=S [thiourea] | – | Effect of the stabilizing agent on pot life [1]: extending the pot life |
